In patent US20230414619A1 (priority 2020, published 2023):

Legend:
[1] = system: PBMCs from a COVID-19 patient; assay type: cell-based, human
SARS-CoV-2 = settings: emetine inhibition of Rps14; pladienolide inhibition of SF3B1; cited from earlier work

Row | SMILES | differentially expressed host factors necessary for SARS-CoV-2 pathogenesis (siRNA and CRISPR screens) [1] | differentially expressed host interactors of SARS-CoV-2 viral RNA [1] | differentially expressed host proteins that interact with SARS-CoV-1/2 and MERS encoded proteins [1] | downregulated proteins following treatment [1] | upregulated proteins following treatment [1] | proteins differentially expressed following treatment ([1]; of 5566 proteins quantified, ANOVA P value<0.05, 0-24 h treatment) | differentially expressed proteins whose turnover is G9a dependent in ET macrophages ([1]; out of 292, 78 upregulated, 74 downregulated) | SARS-CoV-2 replication (SARS-CoV-2)
1 | COc1cc2c(NC3CCN(C(C)C)CC3)nc(N3CCC(F)(F)CC3)nc2cc1OCCCN1CCCC1 [UNC0642] | 8 | 2 | 129 | 151 | 141 | 292 | 152 | 
2 | CC[C@H]1CN2CCc3cc(OC)c(OC)cc3[C@@H]2C[C@@H]1C[C@H]1NCCc2cc(OC)c(OC)cc21 [emetine] |  |  |  |  |  |  |  | significantly reduced
3 | CC[C@H](O)[C@@H](C)[C@H]1O[C@@H]1C[C@H](C)/C=C/C=C(\C)[C@H]1OC(=O)C[C@H](O)CC[C@@](C)(O)[C@@H](OC(C)=O)/C=C/[C@@H]1C [pladienolide] |  |  |  |  |  |  |  | significantly reduced
